Here are results for 18 compounds from US9809542B2, “Spiroheterocyclically substituted tetramic acid derivatives” (BAYER INTELLECTUAL PROPERTY GMBH, priority 2010, dated 2017).

Assay type in all cases: in vivo
The test system of experiment [1] is Echinocloa crus-galli. The experiment is described as follows: Herbicidal post-emergence action. As to conditions: post-emergence method, 80 g/ha; about 3 weeks. An excerpt: (§1) • Seeds of monocotyledonous and dicotyledonous weed and crop plants are placed in sandy loam in wood fibre pots and covered with soil. The test compounds, formulated in the form of wettable powders (WP), are then, as aqueous suspension with a water application rate of 600 l/ha (converted), with 0.2% of wetting agent added, applied to the surface of the covering soil in various dosages. • After the treatment, the pots are placed in a greenhouse and kept under good growth conditions for the test plants. The visual assessment of the emergence damage on the test plants is carried out after a trial period of about 3 weeks by comparison with untreated controls (herbicidal effect in %: 100% effect=the plants have died, 0% effect=like control plants). • In addition to the compounds mentioned above, the following compounds, applied by the pre-emergence method at 320 g of a.i./ha, show an efficacy of 90% against Lolium multiflorum and Setaria viridis: I-1-a-1 • In addition to the compounds mentioned above, the following compounds, applied by the pre-emergence method at 320 g of a.i./ha, show an efficacy of 100% against Echinocloa crus-galli: I-a-2, I-b-1, I-b-2, I-c-2 2. Herbicidal Post-Emergence Action • Seeds of monocotyledonous and dicotyledonous weed and crop plants are placed in sandy loam in wood fibre pots, covered with soil and cultivated in a greenhouse under good growth conditions. 2-3 weeks after sowing, the test plants are treated at the one-leaf stage. The test compounds, formulated as wettable powders (WP), are, in various dosages at a water application rate of 600 l/ha (converted), with 0.2% of wetting agent added, sprayed onto the green parts of the plants. After the test plants have been kept in the greenhouse under optimum growth conditions for about 3 weeks, the effect of the preparations is rated visually in comparison to untreated controls (herbicidal effect in %: 100% effect=the plants have died, 0% effect=like control plants). • In addition to the compounds mentioned above, the following compounds, applied by the post-emergence method at 80 g/ha, show an efficacy of 90% against Echinocloa crus-galli and Lolium multiflorum: I-a-3, I-a-4, I-a-5.

Another experiment deals with Lolium multiflorum. Description: Herbicidal post-emergence action. Conditions: post-emergence method, 80 g/ha; about 3 weeks.
Excerpt: as §1

Experiment [2] has as its system larva of the mustard beetle (Phaedon cochleariae). Description: Phaedon test (PHAECO spray treatment). Conditions: Chinese cabbage leaf discs, after 7 days. On the procedure:
Phaedon Test ([…] Spray Treatment) Solvents: 78.0 parts by weight of acetone • • 1.5 parts by weight of dimethylformamide Emulsifier: 0.5 part by weight of alkylaryl polyglycol ether To produce a suitable preparation of active compound, one part by weight of active compound is mixed with the stated amounts of solvents and emulsifier, and the concentrate is diluted with emulsifier-containing water to the desired concentration. Discs of Chinese cabbage (Brassica pekinensis) are sprayed with an active compound preparation of the desired concentration and, after drying, populated with larva of the mustard beetle (Phaedon cochleariae).

For experiment [3], the system named is green peach aphid (Myzus persicae). Description: Myzus test (MYZUPE spray treatment). Conditions: application rate 500 g/ha, Chinese cabbage leaf discs, after 6 days. How it is done:
Myzus Test (MYZUPE Spray Treatment)
Solvents: 78 parts by weight of acetone
(§2) • 1.5 parts by weight of dimethylformamide Emulsifier: 0.5 part by weight of alkylaryl polyglycol ether
To produce a suitable preparation of active compound, 1 part by weight of active compound is mixed with the stated amounts of solvents and emulsifier, and the concentrate is diluted with emulsifier-containing water to the desired concentration. Discs of Chinese cabbage (Brassica pekinensis) which are infested by all stages of the green peach aphid (Myzus persicae) are sprayed with an active compound preparation of the desired concentration. After 6 days, the effect in % is determined. 100% means that all aphids have been killed; 0% means that none of the aphids have been killed.

The test system of experiment [4] is greenhouse red spidermite (Tetranychus urticae). Description: Tetranychus test OP-resistant (TETRUR spray treatment). As to conditions: application rate 100 g/ha, bean leaf discs, after 6 days. How it is done: Tetranychus Test OP-Resistant (TETRUR Spray Treatment)
(§3) Solvents: 78.0 parts by weight of acetone
as §2
To produce a suitable preparation of active compound, 1 part by weight of active compound is mixed with the stated amounts of solvents and emulsifier, and the concentrate is diluted with emulsifier-containing water to the desired concentration. Discs of bean leaves (Phaseolus vulgaris) which are infested by all stages of the greenhouse red spidermite (Tetranychus urticae) are sprayed with an active compound preparation of the desired concentration.
After 6 days, the effect in % is determined. 100% means that all spidermites have been killed; 0% means that none of the spidermites have been killed.

Experiment [5] deals with caterpillars of the armyworm (Spodoptera frugiperda). The experiment is described as follows: Spodoptera frugiperda test (SPODFR spray treatment). Conditions: application rate 500 g/ha, maize leaf discs, after 7 days. How it is done:
Spodoptera frugiperda Test (SPODFR Spray Treatment)
as §3, §2
To produce a suitable preparation of active compound, 1 part by weight of active compound is mixed with the stated amounts of solvents and emulsifier, and the concentrate is diluted with emulsifier-containing water to the desired concentration. Discs of maize leaves (Zea mays) are sprayed with an active compound preparation of the desired concentration and, after drying, populated with caterpillars of the armyworm (Spodoptera frugiperda).
After 7 days, the effect in % is determined. 100% means that all caterpillars have been killed; 0% means that none of the caterpillars have been killed.

The test system of experiment [6] is Echinocloa crus-galli. The experiment is described as follows: Herbicidal pre-emergence action. Conditions: pre-emergence method, 320 g of a.i./ha; about 3 weeks.
Excerpt: 1. Herbicidal Pre-Emergence Action
as §1

Another experiment has as its system Lucilia cuprina larva. Description: Lucilia cuprina test (LUCICU). As to conditions: application rate 100 ppm; treated horse meat; after 2 days. On the procedure:
Lucilia cuprina Test (LUCICU)
Solvent: Dimethyl sulphoxide
To produce a suitable preparation of active compound, 10 mg of active compound are mixed with 0.5 ml of dimethyl sulphoxide and the concentrate is diluted with water to the desired concentration. Containers containing horse meat treated with the active compound preparation of the desired concentration are populated with about 20 Lucilia cuprina larva.
After 2 days, the kill in % is determined. 100% means that all larva have been killed; 0% means that none of the larva have been killed.

As to `CCON1CCC2(CC1)NC(=O)C(c1cc(-c3ccc(F)cc3)ccc1Cl)=C2O` [I-a-3], the “efficacy (herbicidal effect in %)” value with Echinocloa crus-galli [1] and in the experiment on Lolium multiflorum was 90% each time. For the same compound, the “efficacy (effect in %, beetle larva killed)” value in experiment [2] (application rate 500 g/ha) is 100%. The “efficacy (effect in %, aphids killed)” value in experiment [3] turned out to be 100%. The “efficacy (effect in %, spidermites killed)” value in experiment [4] was 90%. For the same compound, the “efficacy (effect in %, caterpillars killed)” value in experiment [5] was found to be 83%.

`CON1CCC2(CC1)NC(=O)C(c1cc(-c3ccc(F)cc3)ccc1Cl)=C2O` [I-a-4]: the “efficacy (herbicidal effect in %)” value in the experiment with Echinocloa crus-galli [1] and in the experiment on Lolium multiflorum was 90% throughout. Also, in experiment [3], the “efficacy (effect in %, aphids killed)” value came to 100%. For the same compound, the “efficacy (effect in %, spidermites killed)” value in experiment [4] was 100%. Moreover, the “efficacy (effect in %, caterpillars killed)” value in experiment [5] worked out at 83%.

As for `CON1CCC2(CC1)NC(=O)C(c1cc(-c3ccc(F)cc3)ccc1C)=C2O` [I-a-5], the “efficacy (herbicidal effect in %)” value in the experiment with Echinocloa crus-galli [1] and in the experiment on Lolium multiflorum was 90% each time. Moreover, the “efficacy (effect in %, aphids killed)” value in experiment [3] stood at 100%. The “efficacy (effect in %, spidermites killed)” value in experiment [4] amounted to 90%. Besides, in experiment [5], the “efficacy (effect in %, caterpillars killed)” value turned out to be 100%.

On to `CCON1CCC2(CC1)NC(=O)C(c1cc(-c3ccc(F)cc3)ccc1C)=C2O` [I-a-6], for which the “efficacy (effect in %, beetle larva killed)” value in experiment [2] (application rate 100 g/ha) was 100%. The “efficacy (effect in %, aphids killed)” value in experiment [3] stood at 100%. Moreover, in experiment [4], the “efficacy (effect in %, spidermites killed)” value came to 90%. In experiment [5], the “efficacy (effect in %, caterpillars killed)” value was 100%.

For the compound `CCON1CCC2(CC1)NC(=O)C(c1c(OC)ccc(-c3ccc(F)cc3)c1Cl)=C2O` [I-a-7], the “efficacy (effect in %, aphids killed)” value in experiment [3] came out at 100%. Moreover, the “efficacy (effect in %, spidermites killed)” value in experiment [4] was found to be 90%.

Consider `CCc1ccc(-c2ccc(F)cc2)c(C)c1C1=C(O)C2(CCN(OC)CC2)NC1=O` [I-a-8], for which the “efficacy (effect in %, beetle larva killed)” value in experiment [2] (application rate 500 g/ha) is 100%. Besides, in experiment [3], the “efficacy (effect in %, aphids killed)” value worked out at 90%. In experiment [4], the “efficacy (effect in %, spidermites killed)” value came out at 90%.

Turning to `CCON1CCC2(CC1)NC(=O)C(c1c(CC)ccc(-c3ccc(F)cc3)c1C)=C2O` [I-a-9], the “efficacy (effect in %, beetle larva killed)” value in experiment [2] (application rate 500 g/ha) is recorded as 100%. In experiment [3], the “efficacy (effect in %, aphids killed)” value is 90%. Moreover, the “efficacy (effect in %, spidermites killed)” value in experiment [4] is 90%.

In the case of `COc1ccc(-c2ccc(F)cc2)c(Cl)c1C1=C(O)C2(CCN(OC)CC2)NC1=O` [I-a-10], the “efficacy (effect in %, aphids killed)” value in experiment [3] stood at 100%. Moreover, in experiment [4], the “efficacy (effect in %, spidermites killed)” value amounted to 90%.

As for `CCON1CCC2(CC1)NC(=O)C(c1c(C)ccc(-c3ccc(F)c(F)c3)c1C)=C2O` [I-a-11], the “efficacy (effect in %, aphids killed)” value in experiment [3] is given as 100%. Besides, the “efficacy (effect in %, spidermites killed)” value in experiment [4] worked out at 100%.

Regarding `CCON1CCC2(CC1)NC(=O)C(c1c(C)ccc(-c3ccc(F)c(Cl)c3)c1C)=C2O` [I-a-12], the “efficacy (effect in %, aphids killed)” value in experiment [3] stood at 100%. For the same compound, the “efficacy (effect in %, spidermites killed)” value in experiment [4] was determined as 100%. The “efficacy (effect in %, caterpillars killed)” value in experiment [5] amounted to 83%.

In the case of `CON1CCC2(CC1)NC(=O)C(c1c(C)ccc(-c3ccc(F)c(F)c3)c1C)=C2O` [I-a-13], the “efficacy (effect in %, aphids killed)” value in experiment [3] stood at 100%. Moreover, the “efficacy (effect in %, spidermites killed)” value in experiment [4] is 100%.

As to `CCON1CCC2(CC1)NC(=O)C(c1c(C)ccc(-c3ccc(Cl)c(F)c3)c1C)=C2O` [I-a-14], the “efficacy (effect in %, aphids killed)” value in experiment [3] stood at 100%. Also, the “efficacy (effect in %, spidermites killed)” value in experiment [4] worked out at 90%. In addition, the “efficacy (effect in %, caterpillars killed)” value in experiment [5] is 100%.

`CON1CCC2(CC1)NC(=O)C(c1c(C)ccc(-c3ccc(Cl)c(F)c3)c1C)=C2O` [I-a-15]: the “efficacy (effect in %, aphids killed)” value in experiment [3] is given as 100%. Further, the “efficacy (effect in %, spidermites killed)” value in experiment [4] turned out to be 100%. For the same compound, the “efficacy (effect in %, caterpillars killed)” value in experiment [5] was found to be 100%.

For `CON1CCC2(CC1)NC(=O)C(c1c(C)ccc(-c3ccc(F)cc3)c1C)=C2OC(=O)C(C)C` [I-b-1], in the experiment with Echinocloa crus-galli [6], the “efficacy (herbicidal effect in %)” value was 100%. Further, the “efficacy (effect in %, aphids killed)” value in experiment [3] turned out to be 100%. In experiment [5], the “efficacy (effect in %, caterpillars killed)” value is 100%.

For `CCON1CCC2(CC1)NC(=O)C(c1c(C)ccc(-c3ccc(F)cc3)c1C)=C2OC(=O)C(C)C` [I-b-2], the “efficacy (herbicidal effect in %)” value in the experiment with Echinocloa crus-galli [6] is 100%. Further, the “efficacy (effect in %, aphids killed)” value in experiment [3] is listed as 100%. In experiment [5], the “efficacy (effect in %, caterpillars killed)” value stood at 100%.

As for `CCOC(=O)OC1=C(c2c(C)ccc(-c3ccc(F)cc3)c2C)C(=O)NC12CCN(OC)CC2` [I-c-1], in experiment [3], the “efficacy (effect in %, aphids killed)” value is recorded as 100%. Further, the “efficacy (effect in %, caterpillars killed)” value in experiment [5] is 100%.

`CCOC(=O)OC1=C(c2c(C)ccc(-c3ccc(F)cc3)c2C)C(=O)NC12CCN(OCC)CC2` [I-c-2]: the “efficacy (herbicidal effect in %)” value in the experiment with Echinocloa crus-galli [6] is on record as 100%. For the same compound, the “efficacy (effect in %, aphids killed)” value in experiment [3] is recorded as 100%. Further, the “efficacy (kill in %)” value in the experiment on Lucilia cuprina larva worked out at 80%. For the same compound, the “efficacy (effect in %, caterpillars killed)” value in experiment [5] turned out to be 100%.

Consider `CCOC(=O)OC1=C(c2c(OC)ccc(-c3ccc(F)cc3)c2Cl)C(=O)NC12CCN(OC)CC2` [I-c-3], for which the “efficacy (effect in %, spidermites killed)” value in experiment [4] is given as 90%.
